Reference: publication PMC12040169 (PLOS Biology, 2025)

Assay: in vitro
Conditions: human, hela cells, % viability

Row | SMILES | viability at 28.5 h, 10 µM
1 | COC(=O)[C@@H](C)NC(=O)[C@H]1CN(S(=O)(=O)c2ccccc2)CCN1C(C)=O [CBK289626] | 88.2%
2 | O=C(CN1CCOCC1)N1CCC(Cn2cncn2)(C2CCCCC2)CC1 [CBK136803] | 95.7%
3 | CC(C)Oc1ccc(C(=O)C2=C(O)C(=O)N(CCN(C)C)C2c2ccccc2F)cc1 (centres unmarked) [CBK264886] | 102%
4 | CC(C)Oc1ccc(C(=O)N2CCC(COc3ccc(-c4ccc(S(C)(=O)=O)cc4)cn3)CC2)nc1 [CBK161989] | 86.8%
5 | Cc1nn(Cc2cccc3ccccc23)c(C)c1NC(=O)c1ccccn1 [CBK269936] | 105%
6 | O=C(CCn1c(C(F)F)cc2cccnc21)N1CCCCCC1 [CBK284983] | 96.9%
7 | S=c1[nH]nc(COc2ccccc2)n1C1CCCCC1 [CBK014411] | 96.2%
8 | NC(CC(=O)O)c1ccc(F)c(Oc2ccccc2)c1 (centres unmarked) [CBK286912] | 101%
9 | CCOC(=O)COc1ccc(S(=O)(=O)N2CCN(Cc3ccc4c(c3)OCO4)CC2)cc1 [CBK074492] | 101%
10 | O=C(CCC1CCCCC1)N1CCC(c2n[nH]cc2C(=O)N2CCc3ccccc3C2)CC1 [CBK286271] | 95.4%
11 | O=S(=O)(Nc1cccc2cc[nH]c12)c1cc(Cl)ccc1Cl [CBK153581] | 84.6%
12 | C=CCOc1ccc(C(=O)C2=C(O)C(=O)N(Cc3cccnc3)C2c2cccnc2)cc1 (centres unmarked) [CBK265167] | 98%
13 | CCCN(C(=O)C1CC1)c1nc2c(s1)CCc1c-2cnn1C [CBK281930] | 88.8%
14 | FC(F)(F)c1cc(NCCC2CCCCN2)cc(C(F)(F)F)c1 (centres unmarked) [CBK016963] | 88.6%
15 | CC(C)=NNC(=O)CN(c1ccc(C)cc1)S(=O)(=O)c1ccccc1 [CBK262280] | 99.4%
16 | COc1ccc2cc(C(=O)N3CCc4[nH]c(=O)c(C#N)cc4C3)[nH]c2c1 [CBK304622] | 87.8%
17 | CN(CCc1cnn(C)c1)C(=O)NCCCN1CCCC1=O [CBK307008] | 91.1%
18 | O=C(Nc1ccccc1OC1CCNCC1)c1ccccc1 [CBK050238T] | 115%
19 | CCS(=O)(=O)NC1CC(C)(C)Cc2c1cnn2-c1ccc(OC)cc1 (centres unmarked) [CBK306656] | 116%
20 | Cc1ccc(Cn2c(CN3CCOCC3)nc3c2c(=O)n(C)c(=O)n3C)cc1 [CBK269583] | 91.1%
21 | CCc1cc(CNS(=O)(=O)c2cc(C)ccc2F)on1 [CBK283064] | 108%
22 | Cc1cc(=O)n2c3ccccc3n(CC(O)CN3CCN(C(c4ccccc4)c4ccccc4)CC3)c2c1C#N (centres unmarked) [CBK268375] | 89.8%
23 | CCN(CC)CCCN1C(=O)CSC1c1ccc2c(c1)OCO2 (centres unmarked) [CBK263482C] | 102%

Row | SMILES | viability at 28.5 h, 10 µM
24 | c1ccc2c(OCCOCCN3CCCCC3)cccc2c1 [CBK262000] | 88%
25 | Cc1ccc(NC(=O)c2cnc3sccn3c2=O)cc1 [CBK287448] | 93.1%
26 | CNC(=O)c1ccc(-c2ccccc2C)nc1NCCOC [CBK106007] | 99.7%
27 | O=c1cc(CN2CCC[C@@H]2CN2CCCC2)[nH]c(=O)[nH]1 [CBK149108] | 92.2%
28 | O=C(O)c1ccc(CNCC(O)c2ccccc2)cc1 (centres unmarked) [CBK287243] | 109%
29 | Oc1cc(Cl)c(-c2ccccc2)nn1 [CBK022028] | 88.4%
30 | O=C(Oc1ccc(Cl)cc1)c1cc(S(=O)(=O)N2CCOCC2)ccc1Cl [CBK261670] | 99.6%
31 | NC(=O)c1cccc(NC(=O)/C=C/C(=O)O)c1 [CBK261678] | 96.8%
32 | CCN1C(=O)CC(C(=O)O)S/C1=N\c1ccc(OC)cc1 (centres unmarked) [CBK287266] | 105%
33 | Cc1ccc(OCc2ccccc2)c(Br)c1 [CBK002833] | 105%
34 | OC1(c2cccnc2F)CCN(Cc2c(F)cccc2F)CC1 [CBK283149] | 107%
35 | COc1ccc2[nH]cc(CCNC(=O)Cc3ccsc3)c2c1 [CBK116205] | 91.3%
36 | CCOc1ccnc(N2CCN(C(=O)CCc3ccsc3)CC2)n1 [CBK304942] | 99.4%
37 | CC(=O)NC1CCN(CC2(c3ccccc3F)CCCC2)CC1 [CBK282591] | 86.7%
38 | O=C(CCc1cccnc1)N1CCCc2ccccc21 [CBK200344] | 100%
39 | CCC1Oc2ccc(C(O)c3ccco3)cc2N(Cc2cccc(OC)c2)C1=O (centres unmarked) [CBK286190] | 89.7%
40 | COC(=O)C1CCCCN1S(=O)(=O)c1cccs1 (centres unmarked) [CBK051135] | 109%
41 | CC(C)CC(=O)N1CCN(C(=O)c2ccc(F)cc2)CC1 [CBK003603] | 91.1%
42 | CN1CCC[C@@H]2[C@H]1[C@@H](c1ccc(F)cc1)CN2C(=O)c1ccccn1 [CBK283081] | 103%
43 | C=CCNC(=O)C1C2CCC3(CC(=O)c4cc(Cl)ccc4O3)C21 (centres unmarked) [CBK284873] | 86.3%
44 | Cc1c(-c2cncn2C(C)CN2CCOCC2)[nH]c2ccccc12 (centres unmarked) [CBK281795] | 99.9%
45 | Cc1nn(C(C)C)c(C)c1CN1CCN(C2CCCCC2)C(=O)C1 [CBK282562] | 109%
46 | CCOCCCn1c(SC(C)C#N)nc2ccc(Br)cc2c1=O (centres unmarked) [CBK306084] | 85.7%

Row | SMILES | viability at 28.5 h, 10 µM
47 | COc1ccc(S(=O)(=O)N2CCN(C(C(=O)O)c3ccc(C)cc3)CC2)cc1 (centres unmarked) [CBK296753] | 104%
48 | COc1ccc(C(C)C)cc1S(=O)(=O)NCCN1CCOCC1 [CBK266538] | 112%
49 | COc1cccc(C2C=C(c3cccnc3)Nc3ncnn32)c1OC (centres unmarked) [CBK288062] | 95.1%
50 | CC(=O)c1ccc(-c2cc(F)cc3c2OC(CN)C3)s1 (centres unmarked) [CBK307513] | 54.2%
51 | O=S1(=O)N=C(c2cccs2)C=C(C(F)(F)F)N1 [CBK019309] | 106%
52 | CC(C)(C)OC(=O)N1CC2(C1)N=C1C=C(C(C)(C)C)ON1[C@H]1[C@H](O)[C@H](O)C[C@H]12 [CBK303240] | 97.6%
53 | COc1ccc(CCN(C)Cc2ccncc2)cc1OC [CBK261861] | 98.4%
54 | O=C(OCCN1CCOCC1)c1ccccc1I [CBK033860] | 95.4%
55 | CCCC(CCC)C(=O)Nc1ccc(NC(=O)c2ccco2)c(C)c1 [CBK058263] | 91.9%
56 | CCOC(=O)N1CCN(S(=O)(=O)c2ccc3c(c2)oc(=O)n3CC)CC1 [CBK305055] | 99%
57 | COc1cncc(-c2cncc(NCCCN3CCOCC3)n2)c1 [CBK037902] | 84%
58 | Cc1ccc2oc(C(=O)N(C)Cc3c(C)nn(C)c3C)c(C)c2c1 [CBK281631] | 80.9%
59 | CCNc1nc(-c2ccc(S(C)(=O)=O)cc2)cn2ccnc12 [CBK066452] | 87.1%
60 | CN1CCN(C(=O)c2ccc(-c3cncc(-c4ccc(O)cc4)n3)c(F)c2)CC1 [CBK126752] | 100%
61 | O=C(CO)N1CC2(CCN(CCc3c[nH]c4ccccc34)CC2)c2ccccc21 [CBK131503] | 98.5%
62 | Cc1cc(N(C)C)nc(SCc2n[nH]c(=S)o2)n1 [CBK006887] | 99.8%
63 | Cc1nnc(SCC2=NN(c3nc4ccccc4[nH]3)C(=O)C2)s1 [CBK293979] | 108%
64 | CCC(C)(C)c1ccc(S(=O)(=O)N2CCN(Cc3ccc(C(C)=O)cc3)CC2)cc1 [CBK062826] | 95.1%
65 | Cn1c(=O)c2[nH]c(-c3ccc(OCC(=O)NCCc4ccccc4)cc3)nc2n(C)c1=O [CBK269092] | 97.9%
66 | CN1CC(=O)N2CCOC(C2)c2cccc(n2)NC(=O)C/C=C/CC2(CCNCC2)C1=O (centres unmarked) [CBK292053] | 102%
67 | O=C(Cc1ccc(F)cc1)N1CCCC1c1cccc(Cc2ccc(F)cc2)n1 (centres unmarked) [CBK286234] | 94.7%
68 | COc1ccccc1Nc1nc(C)cc(C)c1C(N)=O [CBK287960] | 82.7%
69 | Cc1ccc(Oc2ncccc2NC(=O)CN2CCC(NC(=O)c3ccccc3)CC2)c2c1CCC2 [CBK074715] | 112%

Row | SMILES | viability at 28.5 h, 10 µM
70 | CC(=O)Nc1ccc(OC(=O)CSc2nc(C)cc(C)n2)cc1 [CBK266707] | 86.6%
71 | CN1CCN(NC(=O)c2cc(-c3cccnc3)nc3ccc(Cl)cc23)CC1 [CBK267729] | 110%
72 | COc1ccc([C@@]23CCC(NC(=S)NCc4ccccc4)C[C@@H]2N(Cc2ccccc2)CC3)cc1 (some centres unmarked) [CBK028140] | 88%
73 | CC(CN(C)C(=O)c1cn[nH]c1C1CCNC1)Oc1ccc(Cl)c(Cl)c1 (centres unmarked) [CBK304786] | 91.1%
74 | NS(=O)(=O)c1ccc(CNC2CC(=O)N(CCc3ccccc3)C2=O)cc1 (centres unmarked) [CBK262464] | 91.7%
75 | CN(C)c1nc(N)nc(COc2ccccc2F)n1 [CBK288236] | 105%
76 | O=C(Cc1ccccc1)Nc1nnc(-c2ccccc2)o1 [CBK287597] | 95.4%
77 | CC(=O)N1C[C@@H](c2ccsc2)[C@@H]2CN(CC3CCCCC3)CC[C@@H]21 [CBK284587] | 93%
78 | COc1ccc(C2CC(c3ccccc3)=NN2c2ccc(S(N)(=O)=O)cc2)cc1OC (centres unmarked) [CBK268193] | 107%
79 | O=S(=O)(NC1c2cccc3cccc(c23)C1Sc1ccccn1)c1ccc(Cl)cc1 (centres unmarked) [CBK264073] | 95.1%
80 | COc1ccc(N2CCN(c3c(C)c(C)nc4cc(-c5nccn5C)nn34)CC2)cc1 [CBK286178] | 85.1%
81 | CCn1cncc1CN1CC2CCCC(O)(c3ccc(C)cc3)C2C1 (centres unmarked) [CBK284374] | 90%
82 | COc1ccc(-n2cc(-c3ccc(F)cc3)nn2)cc1 [CBK113111] | 102%
83 | Cn1ccnc1C1(O)CCN(C(=O)c2ccc(F)cc2F)CC1 [CBK283552] | 103%
84 | COc1cc(CNC(=O)NC(=O)C2CCN(CCCc3ccc(Cl)c(Cl)c3)CC2)cc(OC)c1OC [CBK034858] | 107%
85 | COc1cc(-c2cn3ccnc3c(N3CCN(c4ccncc4)CC3)n2)cc(OC)c1OC [CBK037896] | 86.6%
86 | CC(C)CNC(=O)C(=O)NCCc1ccc(F)cc1 [CBK264903] | 105%
87 | Cc1nc(O)cc(C2CCCN(C(=O)c3scc4c3CCCC4)C2)n1 (centres unmarked) [CBK306969] | 88.5%
88 | CCOC(=O)c1ccc(Nc2nnc3nc(C)cc(C)n23)cc1 [CBK267600] | 93.1%
89 | CCN1CCCC1CNC(=O)c1cc(Br)cnc1N(C)C(C)=O (centres unmarked) [CBK076524] | 85.2%
